# Data reported in patent US9670142B2, “1,3-diaminocyclopentane carboxamide derivatives” (Merck Patent GmbH, priority 2013, dated 2017).
# Biological target: human fatty acid synthase FASN (Homo sapiens (Human), UniProt P49327)
# Assay: Biochemical activity testing of human fatty acid synthase FASN (NADPH fluorescence intensity enzyme assay)
# Conditions: human recombinant full-length fatty acid synthase
# Description: Biochemical activity testing of human fatty acid synthase FASN
# Fatty acid synthase FASN is a multifunctional enzyme with seven catalytic activities thereby synthesising long chain fatty acids especially palmitoyl-CoA in the presence of co-factor NADPH starting from the substrates acetyl-CoA and malonyl-CoA. The reductive synthesis is realized by the oxidation of NADPH to NADP. Since NADPH has a high fluorescence intensity quantum yield compared to NADP with excitation at 340 nm and emission at 460 nm, the reaction can be monitored via the decrease in fluorescence intensity. The biochemical FASN activity testing was performed as 384 well two-time-point kinetic fluorescence intensity assay format in Greiner low volume medium binding 384-well black microtiter plates in a total assay volume of 8 μl and was used for high throughput screen. In each well 3 μl 40 nM human recombinant full-length fatty acid synthase (produced in-house in SF9 cells) were dispensed in the following assay buffer: 50 mM potassium phosphate buffer pH 7.0, 0.005% (w/v) BSA, 2 mM Glutathione, 0.02% Tween-20. Then 2 μl of 200 μM NADPH in assay buffer were added, followed by the addition of the test compounds in 10 dilution concentrations starting with 30 μM (final concentration) to get a final DMSO content of 1% (v/v). The mixture was incubated for at least 15 min at room temperature. After the pre-incubation the enzymatic reaction was started by the addition of 2 μl substrate solution (80 μM acetyl-CoA, 240 μM malonyl-CoA). A first fluorescence intensity measurement (time point one) was performed with an Envision multimode reader (Perkin Elmer LAS Germany GmbH) at excitation wavelength 340 nm (lamp mode) and emission wavelength 460 nm. The reaction was incubated for 30 minutes at room temperature. After this the fluorescence intensity was measured again in the Envision using the same parameters as described above (second time point measurement). The data were analysed by subtracting the first time point measurement value from the second time point measurement value (after the enzymatic reaction). The differences of the emission signals were determined. These reflect directly the conversion rate of NADPH. The full value used was the inhibitor-free reaction. A pharmacological zero value was used like GSK837149A (Sigma-Aldrich) in a final concentration of 5-10 μM. The inhibitory values (IC50) were determined using either the program Symyx Assay Explorer® or Condosseo® from GeneData.
# Chain of human fatty acid synthase FASN (P49327 whole entry): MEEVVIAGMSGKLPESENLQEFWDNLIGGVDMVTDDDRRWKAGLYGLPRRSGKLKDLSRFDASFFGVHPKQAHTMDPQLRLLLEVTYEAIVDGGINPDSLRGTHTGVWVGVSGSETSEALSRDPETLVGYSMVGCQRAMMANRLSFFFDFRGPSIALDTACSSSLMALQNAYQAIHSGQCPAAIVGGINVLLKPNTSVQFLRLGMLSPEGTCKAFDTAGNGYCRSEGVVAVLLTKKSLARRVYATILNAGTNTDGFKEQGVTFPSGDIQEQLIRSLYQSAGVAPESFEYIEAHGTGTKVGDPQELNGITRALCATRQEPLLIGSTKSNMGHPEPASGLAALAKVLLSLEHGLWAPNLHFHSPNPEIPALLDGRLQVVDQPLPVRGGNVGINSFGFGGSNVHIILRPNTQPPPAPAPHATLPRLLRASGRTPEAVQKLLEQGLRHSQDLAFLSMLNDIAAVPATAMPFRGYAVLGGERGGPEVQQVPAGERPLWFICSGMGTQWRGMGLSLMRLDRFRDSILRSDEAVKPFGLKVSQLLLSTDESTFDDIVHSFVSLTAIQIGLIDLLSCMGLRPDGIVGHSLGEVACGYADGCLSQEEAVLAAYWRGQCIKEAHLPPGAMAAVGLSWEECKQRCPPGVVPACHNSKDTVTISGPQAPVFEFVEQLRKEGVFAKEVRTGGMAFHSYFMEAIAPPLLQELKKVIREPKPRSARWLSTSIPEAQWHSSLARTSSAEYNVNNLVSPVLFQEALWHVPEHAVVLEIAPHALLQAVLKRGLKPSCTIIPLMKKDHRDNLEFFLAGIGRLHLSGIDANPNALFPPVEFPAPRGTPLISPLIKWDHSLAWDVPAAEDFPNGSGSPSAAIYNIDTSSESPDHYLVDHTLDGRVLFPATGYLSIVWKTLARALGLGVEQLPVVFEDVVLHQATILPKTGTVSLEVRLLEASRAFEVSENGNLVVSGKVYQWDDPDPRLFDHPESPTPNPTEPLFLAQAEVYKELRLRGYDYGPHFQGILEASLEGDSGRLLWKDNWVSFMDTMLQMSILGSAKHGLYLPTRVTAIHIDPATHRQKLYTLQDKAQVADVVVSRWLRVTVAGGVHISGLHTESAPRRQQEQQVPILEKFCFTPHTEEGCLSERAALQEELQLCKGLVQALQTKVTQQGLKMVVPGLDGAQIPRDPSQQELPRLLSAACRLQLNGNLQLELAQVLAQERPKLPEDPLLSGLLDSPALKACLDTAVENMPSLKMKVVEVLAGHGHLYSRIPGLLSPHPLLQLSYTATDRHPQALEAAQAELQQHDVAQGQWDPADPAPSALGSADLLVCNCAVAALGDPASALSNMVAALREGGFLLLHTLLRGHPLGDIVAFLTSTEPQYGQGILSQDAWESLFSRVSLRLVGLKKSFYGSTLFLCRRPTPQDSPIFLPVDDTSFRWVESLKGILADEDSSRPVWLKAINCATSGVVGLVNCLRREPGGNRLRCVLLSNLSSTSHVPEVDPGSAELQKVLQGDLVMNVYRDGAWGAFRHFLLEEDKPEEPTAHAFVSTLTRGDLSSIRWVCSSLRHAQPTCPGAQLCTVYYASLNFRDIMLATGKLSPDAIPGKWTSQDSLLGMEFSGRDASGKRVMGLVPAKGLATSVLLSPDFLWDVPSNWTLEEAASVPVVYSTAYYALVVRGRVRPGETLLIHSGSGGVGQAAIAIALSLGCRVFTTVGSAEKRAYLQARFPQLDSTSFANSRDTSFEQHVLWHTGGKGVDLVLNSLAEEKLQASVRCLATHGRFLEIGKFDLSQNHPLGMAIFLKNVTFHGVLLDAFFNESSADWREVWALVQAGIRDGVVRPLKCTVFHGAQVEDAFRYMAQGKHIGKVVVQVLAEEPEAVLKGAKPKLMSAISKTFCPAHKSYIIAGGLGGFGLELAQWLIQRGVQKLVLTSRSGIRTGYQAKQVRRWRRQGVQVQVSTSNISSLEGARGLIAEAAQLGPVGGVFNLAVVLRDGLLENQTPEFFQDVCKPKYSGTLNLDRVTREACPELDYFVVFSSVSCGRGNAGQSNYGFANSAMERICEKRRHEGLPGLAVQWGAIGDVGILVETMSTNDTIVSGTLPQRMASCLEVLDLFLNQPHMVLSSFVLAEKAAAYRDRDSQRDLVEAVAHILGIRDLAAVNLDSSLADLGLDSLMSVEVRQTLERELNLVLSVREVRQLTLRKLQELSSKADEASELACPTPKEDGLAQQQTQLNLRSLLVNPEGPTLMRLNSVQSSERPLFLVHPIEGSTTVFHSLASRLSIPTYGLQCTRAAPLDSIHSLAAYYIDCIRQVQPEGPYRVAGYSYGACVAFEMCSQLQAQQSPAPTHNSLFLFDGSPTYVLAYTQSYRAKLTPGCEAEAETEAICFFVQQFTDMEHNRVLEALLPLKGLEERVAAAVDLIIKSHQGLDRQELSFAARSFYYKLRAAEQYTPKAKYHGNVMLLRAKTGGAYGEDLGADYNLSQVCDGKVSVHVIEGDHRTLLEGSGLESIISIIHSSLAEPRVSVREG
row,SMILES,IC50
1,"CCC(=O)N[C@H]1CC[C@@H](N(C)C(=O)c2ccc(-c3ccc4c(ccn4C)c3)cc2)C1 [Compound A80, N-methyl-4-(1-methyl-1H-indol-5-yl)-N-((1R,3S)-3-propionylamino-cyclopentyl)-benzamide]",< 300 nM
2,"CCC(=O)N[C@H]1CC[C@@H](N(C)C(=O)c2ccc(-c3ccc4[nH]ccc4c3F)nn2)C1 [Compound A137, 6-(4-fluoro-1H-indol-5-yl)-pyridazine-3-carboxylic acid methyl-((1R,3S)-3-propionylamino-cyclopentyl)-amide]",< 300 nM
3,"CCC(=O)N[C@H]1CC[C@@H](N(C)C(=O)c2ccc(-c3ccc(F)c(Cl)c3)cc2)C1 [Compound A63, 3′-chloro-4′-fluoro-biphenyl-4-carboxylic acid methyl-((1R,3S)-3-propionylamino-cyclopentyl)-amide]",< 300 nM
4,"CCC(=O)N[C@H]1CC[C@@H](N(C)C(=O)c2ccc(-c3ccc(-n4cccn4)cc3)cc2)C1 [Compound A68, 4′-pyrazol-1-yl-biphenyl-4-carboxylic acid methyl-((1R,3S)-3-propionylamino-cyclopentyl)-amide]",< 300 nM
5,"CCC(=O)N[C@H]1CC[C@@H](N(C)C(=O)c2ccc(-c3ccc4cc[nH]c4c3)cc2)C1 [Compound A67, 4-(1H-indol-6-yl)-N-methyl-N-((1R,3S)-3-propionylamino-cyclopentyl)-benzamide]",< 300 nM
6,"CN(C(=O)c1ccc(-c2nc3ccc(Cl)cc3o2)cc1)[C@@H]1CC[C@H](NC(=O)[C@@H]2CCCO2)C1 [Compound A138, (S)-tetrahydro-furan-2-carboxylic acid ((1S,3R)-3-{[4-(6-chloro-benzooxazol-2-yl)-benzoyl]-methyl-amino}-cyclopentyl)-amide]",< 300 nM
7,"CN(C(=O)c1ncc(-c2nc3ccc(Cl)cc3o2)cn1)[C@@H]1CC[C@H](NC(=O)[C@@H]2CCCO2)C1 [Compound A149, 5-(6-chloro-benzoxazol-2-yl)-pyrimidine-2-carboxylic acid methyl-{(1R,3S)-3-[((S)-tetrahydro-furan-2-carbonyl)-amino]-cyclopentyl}-amide]",300 to 3000 nM
8,"CC(=O)N[C@@H]1CC[C@@H](N(C)C(=O)c2ccc(-c3nc4ccccc4o3)cc2)C1 [Compound A166, N-((1R,3R)-3-acetylamino-cyclopentyl)-4-benzooxazol-2-yl-N-methyl-benzamide]",3000 to 50000 nM
9,"CCC(=O)N[C@H]1CC[C@@H](N(C)C(=O)c2ccc(-c3ccc4c(c3)OCO4)cc2)C1 [Compound A58, 4-benzo[1,3]dioxol-5-yl-N-methyl-N-((1R,3S)-3-propionylamino-cyclopentyl)-benzamide]",< 300 nM
10,"CN(C(=O)c1ccc(-c2nc3ccccc3o2)cc1)[C@@H]1CC[C@H](NC(=O)C2CC2)C1 [Compound A2, 4-benzoxazol-2-yl-N-[(1R,3S)-3-(cyclopropanecarbonyl-amino)-cyclopentyl]-N-methyl-benzamide]",< 300 nM
11,"CCC(=O)N[C@H]1CC[C@@H](N(C)C(=O)c2ccc(-c3ccc(Cl)cc3F)cc2)C1 [Compound A92, 4′-chloro-2′-fluoro-biphenyl-4-carboxylic acid methyl-((1R,3S)-3-propionylamino-cyclopentyl)-amide]",< 300 nM
12,"CCC(=O)N[C@H]1CC[C@@H](N(C)C(=O)c2ccc(-c3ccc(C(F)(F)F)cc3)cc2)C1 [Compound A64, 4′-trifluoromethyl-biphenyl-4-carboxylic acid methyl-((1R,3S)-3-propionylamino-cyclopentyl)-amide]",< 300 nM
13,"CCC(=O)N[C@H]1CC[C@@H](N(C)C(=O)c2ncc(-c3nc4ccc(Cl)cc4o3)cn2)C1 [Compound A156, 5-(6-chloro-benzoxazol-2-yl)-pyrimidine-2-carboxylic acid methyl-((1R,3S)-3-propionylamino-cyclopentyl)-amide]",3000 to 50000 nM
14,"CCC(=O)N[C@H]1CC[C@@H](N(C)C(=O)c2ccc(-c3ccc4nccn4c3)nc2)C1 [Compound A144, 6-imidazo[1,2-a]pyridin-6-yl-N-methyl-N-((1R,3S)-3-propionylamino-cyclopentyl)-nicotinamide]",< 300 nM
15,"CC[C@H](C)CC(=O)N[C@H]1CC[C@@H](N(C)C(=O)c2ccc(-c3nc4ccccc4o3)cc2)C1 [Compound A30, 4-benzoxazol-2-yl-N-methyl-N-[(1R,3S)-3-((S)-3-methyl-pentanoylamino)-cyclopentyl]-benzamide]",< 300 nM

# Continued, values first:
row,IC50,SMILES
1,< 300 nM,"CCC(=O)N[C@H]1CC[C@@H](N(C)C(=O)c2ccc(-c3ccc4[nH]ccc4c3)c(F)c2)C1 [Compound A112, 3-fluoro-4-(1H-indol-5-yl)-N-methyl-N-((1R,3S)-3-propionylamino-cyclopentyl)-benzamide]"
2,< 300 nM,"CCC(=O)N[C@H]1CC[C@@H](N(C)C(=O)c2cnc(-c3ccc4[nH]ccc4c3)nc2)C1 [Compound A139, 2-(1H-indol-5-yl)-pyrimidine-5-carboxylic acid methyl-((1R,3S)-3-propionylamino-cyclopentyl)-amide]"
3,< 300 nM,"CCC(=O)N[C@H]1CC[C@@H](N(C)C(=O)c2ccc(-c3ccc4[nH]cnc4c3)cc2)C1 [Compound A76, 4-(1H-benzimidazol-5-yl)-N-methyl-N-((1R,3S)-3-propionylamino-cyclopentyl)-benzamide]"
4,< 300 nM,"CCC(=O)N[C@H]1CC[C@@H](N(C)C(=O)c2ccc(-c3ccc4c(c3)CC(=O)N4)cc2)C1 [Compound A94, N-methyl-4-(2-oxo-2,3-dihydro-1H-indol-5-yl)-N-((1R,3S)-3-propionylamino-cyclopentyl)-benzamide]"
5,< 300 nM,"CCC(=O)N[C@H]1CC[C@@H](N(C)C(=O)c2ccc(-c3ccc4[nH]ccc4c3F)nc2)C1 [Compound A135, 6-(4-fluoro-1H-indol-5-yl)-N-methyl-N-((1R,3S)-3-propionylamino-cyclopentyl)-nicotinamide]"
6,< 300 nM,"CCC(=O)N[C@H]1CC[C@@H](N(C)C(=O)c2ccc(-c3ccc(C)c(F)c3)cc2)C1 [Compound A66, 3′-fluoro-4′-methyl-biphenyl-4-carboxylic acid methyl-((1R,3S)-3-propionylamino-cyclopentyl)-amide]"
7,< 300 nM,"CCC(=O)N[C@H]1CC[C@@H](N(C)C(=O)c2ccc(-c3nc4ccc(Cl)cc4o3)cc2)C1 [Compound A128, 4-(6-chloro-benzoxazol-2-yl)-N-methyl-N-((1R,3S)-3-propionylamino-cyclopentyl)-benzamide]"
8,< 300 nM,"CCC(=O)N[C@H]1CC[C@@H](N(C)C(=O)c2ccc(-c3ccc(-c4ccn[nH]4)cc3)cc2)C1 [Compound A81, 4′-(2H-pyrazol-3-yl)-biphenyl-4-carboxylic acid methyl-((1R,3S)-3-propionylamino-cyclopentyl)-amide]"
9,< 300 nM,"CCC(=O)N[C@H]1CC[C@@H](N(C)C(=O)c2ccc(-c3ccc(C(=O)NC)cc3)cc2)C1 [Compound A78, biphenyl-4,4′-dicarboxylic acid 4′-methylamide 4-[methyl-((1R,3S)-3-propionylamino-cyclopentyl)-amide]]"
10,< 300 nM,"CC[C@@H](C)CC(=O)N[C@H]1CC[C@@H](N(C)C(=O)c2ccc(-c3nc4ccccc4o3)cc2)C1 [Compound A31, 4-benzoxazol-2-yl-N-methyl-N-[(1R,3S)-3-((R)-3-methyl-pentanoylamino)-cyclopentyl]-benzamide]"
11,< 300 nM,"CCC(=O)N[C@H]1CC[C@@H](N(C)C(=O)c2ccc(-c3ccc4c(c3)c(CN)cn4C)cc2)C1 [Compound A152, 4-(3-aminomethyl-1-methyl-1H-indol-5-yl)-N-methyl-N-((1R,3S)-3-propionylamino-cyclopentyl)-benzamide]"
12,< 300 nM,"CCCCC(=O)N[C@H]1CC[C@@H](N(C)C(=O)c2ccc(-c3nc4ccccc4o3)cc2)C1 [Compound A24, 4-benzoxazol-2-yl-N-methyl-N-((1R,3S)-3-pentanoylamino-cyclopentyl)-benzamide]"
13,< 300 nM,"CCC(=O)N[C@H]1CC[C@@H](N(C)C(=O)c2ccc(-c3ccc4c(ccn4C)c3)c(C)c2)C1 [Compound A114, 3,N-dimethyl-4-(1-methyl-1H-indol-5-yl)-N-((1R,3S)-3-propionylamino-cyclopentyl)-benzamide]"
14,300 to 3000 nM,"CCC(=O)N[C@H]1CC[C@@H](N(C)C(=O)c2cnc(-c3nc4ccc(Cl)cc4o3)cn2)C1 [Compound A148, 5-(6-chloro-benzoxazol-2-yl)-pyrazine-2-carboxylic acid methyl-((1R,3S)-3-propionylamino-cyclopentyl)-amide]"
15,< 300 nM,"CCC(=O)N[C@H]1CC[C@@H](N(C)C(=O)c2ccc(-c3nc4ccccc4o3)c(OC)c2)C1 [Compound A13, 4-benzoxazol-2-yl-3-methoxy-N-methyl-N-((1R,3S)-3-propionylamino-cyclopentyl)-benzamide]"
